Marks after values point to notes of the source that are not given here.
Legend:
trained sensory panel = assay: Sensory profiling (QDA) of sweetener samples by trained sensory panel; assay type: in vivo, human; conditions: for Mean Rating (0-100): sweetness as agreed by the panel; for Sweet Taste Intensity: Table 3, concentration printed 0.032 g/L (steviol glycosides samples) or 0.024 g/L (others); for ES (equivalent sucrose concentration): from mean sweetness rating via Sweetness=15.5 (sucrose)-22.5; for ES (equivalent sucrose concentration) / Potency: concentration 0.032 or 0.024 g/L; for Bitter Taste / Cardboard/Stale Flavour / Cooked sugar flavour / Cooling Sensation / Crusty Bread Flavour / Liquorice Flavour / Metallic / Overall Strength of Off Taste/Flavour / Perfume Flavour / Salty Taste / Sour Taste / Sweet Taste / Bitter Aftertaste / Cooling Aftereffect / Liquorice Aftereffect / Sweet Aftertaste: mean rating, line scale 0-100, Stevia samples 0.32 g/L, Reb and Mogroside samples 0.24 g/L water; for Bitter Aftertaste / Cooling Aftereffect / Liquorice Aftereffect / Sweet Aftertaste: scored after 30 second delay; for Potency: sweet potency relative to sucrose; for liquorice flavour compared between sweeteners: unmodified sweeteners
[1] = Initial tasting against sucrose standards; assay type: in vivo; conditions: all samples at 0.32 g/L, compared with Steviol glycosides
Method: For the initial tasting sucrose standards were prepared at 4, 6, 8 and 10% (w/v) sucrose. Aiming for 8% sucrose equivalence all HIS and enzyme modified samples were also prepared at 0.32 g/L. From the initial tasting it had been concluded that the sucrose standard range needed to be reduced to 2, 4, 6 and 8% as the 10% sample was too extreme.

[2] = reported; cited from earlier work
[3] = Reported bitterness of steviol glycosides and sucrose equivalence (literature); assay type: in vivo, human
From the text: Often sweeteners are compared to sucrose at 8% sucrose equivalent (Prakash, G. E. DuBois, J. F. Clos, K. L. Wilkens, L. E. Fosdick. (2008). Development of rebiana, a natural, non-caloric sweetener. Food and Chemical Toxicology. Volume 46, Issue 7, Pages S75-S82. Previous literature (Caroline Hellfritsch, Anne Brockhoff, Frauke Stähler, Wolfgang Meyerhof, and Thomas Hofmann (2012). Human Psychometric and Taste Receptor Responses to Steviol Glycosides. Journal of Agricultural and Food Chemistry 2012 60 (27), 6782-6793) has shown bitterness of steviol glycosides to be most obvious at around 1000 μM which for Rebaudioside A would be 0.97 g/L, equivalent to 24% sucrose. However, solutions of 100 μM are also bitter which for Rebaudioside A would be 0.097 g/L, equivalent to 2.4% sucrose. Therefore, it was decided to test solutions at equivalent sweetness levels above 2% sucrose to ensure that both sweetness and bitterness could be evaluated in levels applicable to final application.

[4] = modified high intensity sweetener compared to un-modified

Row | Compound | sweetness in initial tasting [1] | effect of enzyme modification on sweetness (trained sensory panel; CGTase modified vs unmodified) | Sweet Taste Intensity (trained sensory panel) | ES (equivalent sucrose concentration) (trained sensory panel) | Bitter Taste (trained sensory panel) | Cardboard/Stale Flavour (trained sensory panel) | Cooked sugar flavour (trained sensory panel) | Cooling Sensation (trained sensory panel) | Crusty Bread Flavour (trained sensory panel) | Liquorice Flavour (trained sensory panel) | Metallic (trained sensory panel) | Overall Strength of Off Taste/Flavour (trained sensory panel) | Perfume Flavour (trained sensory panel) | Salty Taste (trained sensory panel) | Sour Taste (trained sensory panel) | Sweet Taste (trained sensory panel) | Bitter Aftertaste (trained sensory panel) | Cooling Aftereffect (trained sensory panel) | Liquorice Aftereffect (trained sensory panel) | Sweet Aftertaste (trained sensory panel) | other results
1 | OC[C@H]1O[C@@](CO)(O[C@H]2O[C@H](CO)[C@@H](O)[C@H](O)[C@H]2O)[C@@H](O)[C@@H]1O [Sucrose] | – | – | – | – | – | – | – | – | – | – | – | – | – | – | – | – | – | – | – | – | Mean Rating (0-100) (trained sensory panel; sucrose standard 1, 2.0 % w/v): 10; Mean Rating (0-100) (trained sensory panel; sucrose standard 2, 4.0 % w/v): 35; Mean Rating (0-100) (trained sensory panel; sucrose standard 3, 6.0 % w/v): 75; Mean Rating (0-100) (trained sensory panel; sucrose standard 4, 8.0 % w/v): 100
2 | C[C@H](CC[C@@H](O[C@@H]1O[C@H](CO[C@@H]2O[C@H](CO)[C@@H](O)[C@H](O)[C@H]2O)[C@@H](O)[C@H](O)[C@H]1O[C@@H]1O[C@H](CO)[C@@H](O)[C@H](O)[C@H]1O)C(C)(C)O)[C@H]1CC[C@@]2(C)[C@@H]3CC=C4[C@@H](CC[C@H](O[C@@H]5O[C@H](CO[C@@H]6O[C@H](CO)[C@@H](O)[C@H](O)[C@H]6O)[C@@H](O)[C@H](O)[C@H]5O)C4(C)C)[C@]3(C)[C@H](O)C[C@]12C [Mogroside, Mogroside V] | considered sweeter than the Steviol glycosides | reduced the sweetness | 47.3 | 4.5% | 7.3^c | 0.7^c | 3.2^ab | 2.6^ab | 3.3^a | 21.4^a | 3.4^b | 25.6^cd | 0.3^a | 0.8^a | 1.2^b | 47.3^b | 4.6^c | 1.6^ab | 10.8^bc | 28.2^b | effect of enzymatic modification on liquorice flavour (trained sensory panel; CGTase modified vs unmodified): significantly reduced; Bitter taste: reduction % (trained sensory panel; [4]): 0%; Bitter taste: reduction ratio (trained sensory panel; [4]): 0; Liquorice taste: reduction % (trained sensory panel; [4]): 41%; Liquorice taste: reduction ratio (trained sensory panel; [4]): 1.7; Metallic: reduction % (trained sensory panel; [4]): 67%; Metallic: reduction ratio (trained sensory panel; [4]): 3; Potency (trained sensory panel): 188; liquorice flavour compared between sweeteners (trained sensory panel): equivalent in liquorice flavour; sweet potency relative to sucrose [2]: ~400 ×
3 | C=C1C[C@@]23CC[C@H]4[C@@](C)(CCC[C@@]4(C)C(=O)O[C@@H]4O[C@H](CO)[C@@H](O)[C@H](O)[C@H]4O)[C@@H]2CC[C@]1(O[C@@H]1O[C@H](CO)[C@@H](O)[C@H](O[C@@H]2O[C@H](CO)[C@@H](O)[C@H](O)[C@H]2O)[C@H]1O[C@@H]1O[C@H](CO)[C@@H](O)[C@H](O)[C@H]1O)C3 [Reb, Rebaudioside A] | considered sweeter than the Steviol glycosides | reduced the sweetness | 60.3 | 5.3% | 10.8^bc | 0.6^c | 3.9^a | 4.7^a | 0.5^bc | 24.2^a | 2.7^bc | 31.9^bc | 0.4^a | 1.6^a | 0.9^b | 60.3^a | 6.5^bc | 2.1^a | 11.6^bc | 34.8^a | sweetness compared between sweeteners (trained sensory panel; Rebaudioside A 0.24 g/L vs Steviol glycosides 0.32 g/L and Mogroside V 0.24 g/L): significantly more sweet; Potency (trained sensory panel): 223; liquorice flavour compared between sweeteners (trained sensory panel): equivalent in liquorice flavour; equivalent sucrose ([3]; 100 μM = 0.097 g/L): 2.4 % sucrose; equivalent sucrose ([3]; 1000 μM = 0.97 g/L): 24 % sucrose; sweet potency relative to sucrose [2]: ~250 ×

Reference: patent US12213501B2, “Methods for modifying high intensity sweetener glycosides” (Optibiotix Limited, priority 2018, dated 2025)
